Data from article PMC9516332 (Frontiers in Oncology, 2022).
Like-named read-outs stand apart in the source and are kept apart here.

Experiments:
Test in all cases: Kinase panel profiling at 1 µmol/L (MSA or IMAP), percentage inhibition
Assay type in all cases: biochemical
[1] = biological target: panel of 255 wild-type kinases (Homo sapiens, UniProt O00311); conditions: CDC7/ASK kinase assay; 1 µmol/L single concentration; read-out: %-inhibition CDC7/ASK
[2] = biological target: panel of 255 wild-type kinases (Homo sapiens, UniProt P12931); conditions: kinase SRC; 1 µmol/L single concentration; read-out: %-inhibition at 1 µmol/L, SRC
[3] = biological target: panel of 255 wild-type kinases (Homo sapiens, UniProt P00519); conditions: ABL kinase assay; 1 µmol/L single concentration; read-out: %-inhibition ABL
[4] = biological target: T1, panel of 255 wild-type kinases (Homo sapiens, UniProt O14920); conditions: kinase IKKβ; 1 µmol/L single concentration; read-out: %-inhibition at 1 µmol/L, IKKβ
T1 sequence (O14920 1-756): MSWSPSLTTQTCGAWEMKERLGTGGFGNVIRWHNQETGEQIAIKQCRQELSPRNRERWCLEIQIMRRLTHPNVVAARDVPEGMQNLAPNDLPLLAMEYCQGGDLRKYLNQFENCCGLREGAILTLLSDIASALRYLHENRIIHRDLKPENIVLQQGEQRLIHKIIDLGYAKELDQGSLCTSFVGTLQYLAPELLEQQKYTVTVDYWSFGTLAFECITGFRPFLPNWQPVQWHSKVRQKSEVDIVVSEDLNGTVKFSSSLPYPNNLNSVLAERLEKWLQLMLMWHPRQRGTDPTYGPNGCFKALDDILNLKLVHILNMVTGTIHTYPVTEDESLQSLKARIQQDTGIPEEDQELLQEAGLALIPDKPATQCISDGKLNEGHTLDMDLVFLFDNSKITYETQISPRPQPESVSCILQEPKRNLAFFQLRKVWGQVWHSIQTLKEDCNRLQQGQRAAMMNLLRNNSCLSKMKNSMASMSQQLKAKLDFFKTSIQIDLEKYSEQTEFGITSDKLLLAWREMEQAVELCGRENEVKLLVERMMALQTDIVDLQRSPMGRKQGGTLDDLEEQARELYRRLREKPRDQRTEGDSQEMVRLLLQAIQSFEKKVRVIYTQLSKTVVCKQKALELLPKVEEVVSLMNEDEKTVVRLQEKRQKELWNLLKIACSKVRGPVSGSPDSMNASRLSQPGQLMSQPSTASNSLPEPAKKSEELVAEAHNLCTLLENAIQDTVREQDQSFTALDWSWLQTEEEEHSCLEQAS

[5] = biological target: panel of 255 wild-type kinases (Homo sapiens, UniProt P17612); conditions: read-out: %-inhibition at 1 µmol/L, PKACα
[6] = biological target: panel of 255 wild-type kinases (Homo sapiens, UniProt P07949); conditions: kinase RET; 1 µmol/L single concentration; read-out: %-inhibition at 1 µmol/L, RET
[7] = tested on: panel of 255 wild-type kinases; conditions: for %-inhibition at 1 µmol/L, FYN [isoform b]: kinase FYN [isoform b]; for %-inhibition at 1 µmol/L, FYN [isoform b] / %-inhibition at 1 µmol/L, LYNb / %-inhibition at 1 µmol/L, PKCβ2 / %-inhibition at 1 µmol/L, SRM: 1 µmol/L single concentration; for %-inhibition at 1 µmol/L, LYNb: kinase LYNb; for %-inhibition at 1 µmol/L, PKCβ2: kinase PKCβ2; for %-inhibition at 1 µmol/L, SRM: kinase SRM
[8] = biological target: panel of 255 wild-type kinases (Homo sapiens, UniProt Q02763); conditions: kinase TIE2; 1 µmol/L single concentration; read-out: %-inhibition at 1 µmol/L, TIE2
[9] = biological target: T2, panel of 255 wild-type kinases (Homo sapiens, UniProt Q16566); conditions: CaMK4 kinase assay; 1 µmol/L single concentration; read-out: %-inhibition CaMK4
T2 sequence (Q16566 1-473): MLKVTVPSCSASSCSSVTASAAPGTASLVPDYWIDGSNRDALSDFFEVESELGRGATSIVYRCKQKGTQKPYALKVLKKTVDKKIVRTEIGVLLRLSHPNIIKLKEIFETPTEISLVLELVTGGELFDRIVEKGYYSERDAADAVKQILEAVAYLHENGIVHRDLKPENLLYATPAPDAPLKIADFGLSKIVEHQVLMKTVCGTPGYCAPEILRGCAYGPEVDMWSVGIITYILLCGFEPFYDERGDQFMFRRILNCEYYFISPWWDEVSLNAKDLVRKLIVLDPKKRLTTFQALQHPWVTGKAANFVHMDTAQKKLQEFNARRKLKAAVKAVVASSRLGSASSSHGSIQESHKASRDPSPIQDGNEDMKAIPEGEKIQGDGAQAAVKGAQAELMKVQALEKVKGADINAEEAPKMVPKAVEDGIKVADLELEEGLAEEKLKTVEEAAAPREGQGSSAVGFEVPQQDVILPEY

[10] = biological target: panel of 255 wild-type kinases (Homo sapiens, UniProt P22694); conditions: kinase PKACβ; 1 µmol/L single concentration; read-out: %-inhibition at 1 µmol/L, PKACβ
[11] = biological target: T3, panel of 255 wild-type kinases (Homo sapiens, UniProt Q13188); conditions: MST2; 1 µmol/L single concentration; read-out: %-inhibition, MST2
T3 sequence (Q13188 1-491): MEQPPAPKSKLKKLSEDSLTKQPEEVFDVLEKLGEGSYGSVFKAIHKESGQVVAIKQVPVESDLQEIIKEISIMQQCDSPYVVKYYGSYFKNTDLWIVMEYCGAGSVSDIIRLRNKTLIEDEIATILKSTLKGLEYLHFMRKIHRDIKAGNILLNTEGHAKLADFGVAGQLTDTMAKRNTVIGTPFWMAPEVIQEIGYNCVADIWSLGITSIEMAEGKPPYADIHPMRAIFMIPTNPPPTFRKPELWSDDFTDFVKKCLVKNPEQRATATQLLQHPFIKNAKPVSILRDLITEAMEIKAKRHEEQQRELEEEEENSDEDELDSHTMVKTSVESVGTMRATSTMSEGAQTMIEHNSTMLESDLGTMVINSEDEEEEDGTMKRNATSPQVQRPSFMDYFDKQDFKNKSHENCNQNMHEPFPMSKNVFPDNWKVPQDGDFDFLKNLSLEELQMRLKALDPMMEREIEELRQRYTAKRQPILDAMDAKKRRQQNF

[12] = biological target: panel of 255 wild-type kinases (Homo sapiens, UniProt Q9Y243); conditions: AKT3 kinase assay; 1 µmol/L single concentration; read-out: %-inhibition AKT3
[13] = biological target: panel of 255 wild-type kinases (Homo sapiens, UniProt Q8N568); conditions: kinase DCAMKL2; 1 µmol/L single concentration; read-out: %-inhibition at 1 µmol/L, DCAMKL2
[14] = kinase PKACα, 1 µmol/L single concentration

Structure (SMILES) | inhibition at 1 µM [1] [%] | inhibition at 1 µM [2] [%] | inhibition at 1 µM [3] [%] | inhibition at 1 µM [4] [%] | inhibition at 1 µM [5, 14] [%] | inhibition at 1 µM [6] [%] | %-inhibition at 1 µmol/L, FYN [isoform b] [7] [%] | %-inhibition at 1 µmol/L, LYNb [7] [%] | %-inhibition at 1 µmol/L, PKCβ2 [7] [%] | %-inhibition at 1 µmol/L, SRM [7] [%] | inhibition at 1 µM [8] [%] | inhibition at 1 µM [9] [%] | inhibition at 1 µM [10] [%] | inhibition at 1 µM [11] [%] | inhibition at 1 µM [12] [%] | inhibition at 1 µM [13] [%] | number of the 255 profiled kinases inhibited by more than 50% ([7]; 1 µmol/L inhibitor) | inhibition at 1 µM [5] [%]
Cc1cc(Nc2ncnc3ccc(NC4=NC(C)(C)CO4)cc23)ccc1Oc1ccn2ncnc2c1 [tucatinib] | -0.857 | -2 | -3 | 1 | -20 | 35 | -1.06 | 6 | -1.5 | 2.77 | -2.82 | 0.435 | -15 | -1.17 | -4.58 | 3.59 | – | –
FC(F)(F)c1ccc(CNc2ccc(Cc3c[nH]c4ncc(Cl)cc34)cn2)cn1 [pexidartinib] | 0.521 | 0.371 | 0.064 | 5 | -7 | 88 | 1.3 | 19 | 3.47 | 0.409 | 14 | 4 | 4 | 10 | -6 | 3.25 | – | –
Cn1cnc2c(F)c(Nc3ccc(Br)cc3F)c(C(=O)NOCCO)cc21 [binimetinib] | -0.214 | -0.525 | -1.53 | -4 | -12 | -6 | 4 | 4.22 | -1.88 | -1.11 | 2.63 | 2.67 | -0.56 | -1.64 | -5.69 | -13 | – | –
COC(=O)N[C@@H](C)CNc1nccc(-c2cn(C(C)C)nc2-c2cc(Cl)cc(NS(C)(=O)=O)c2F)n1 [encorafenib] | -4.28 | -2.16 | -5.41 | 0.644 | -10 | -10 | 4.62 | 4 | 2.15 | 85 | 6 | 4.35 | 9.51 | 3 | -0.872 | -12 | – | –
C[C@H]1Oc2cc(cnc2N)-c2c(nn(C)c2C#N)CN(C)C(=O)c2ccc(F)cc21 [lorlatinib] | -2 | 28 | -2.34 | -0.377 | -8 | 10 | 4 | 22 | 4 | 59 | 17 | 1.56 | -18 | 8 | -0.768 | 74 | – | –
COc1ccc(CN2C3CC2CN(c2ccc(-c4cc(OCC(C)(C)O)cn5ncc(C#N)c45)cn2)C3)cn1 [selpercatinib] | -2 | 48 | 16 | -2.15 | -5 | 102 | 10 | 52 | -1.06 | -1.55 | 43 | -2.54 | -4.64 | 0.47 | -0.71 | 1.22 | 46 | –
Cn1cnc2c(F)c(Nc3ccc(Br)cc3Cl)c(C(=O)NOCCO)cc21 [selumetinib] | -0.0396 | -2.83 | -6.58 | 1.34 | -28 | 38 | -1.85 | 7 | -2 | -1.41 | -9 | -2 | -21 | -2.14 | -6.42 | 0.902 | – | –
CCc1nc(C(N)=O)c(Nc2ccc(N3CCC(N4CCN(C)CC4)CC3)c(OC)c2)nc1NC1CCOCC1 [gilteritinib] | 3 | 89 | 40 | 5.66 | – | 100 | 86 | 84 | 31 | 23 | 41 | 18 | 22 | 14 | -4.56 | 11 | – | 7
